Patent publication US20250223307A1, “MDM2/MDMX DOUBLE-TARGET INHIBITOR COMPOUND, PRODRUG, PHARMACEUTICAL COMPOSITION, AND PREPARATION METHOD THEREFOR AND USE THEREOF” (GLOBAL HEALTH DRUG DISCOVERY INSTITUTE, priority 2022, published 2025)
pIC50: −log10 of the molar value.

Assays:
MDM2 = MDM2 (Homo sapiens, UniProt Q00987); assay: HTRF test: inhibition of MDM2-p53 protein binding
MDMX = molecular target: T1, MDMX (Homo sapiens, UniProt O15151); assay: HTRF test: inhibition of MDMX-p53 protein binding
T1 sequence (O15151 2-134): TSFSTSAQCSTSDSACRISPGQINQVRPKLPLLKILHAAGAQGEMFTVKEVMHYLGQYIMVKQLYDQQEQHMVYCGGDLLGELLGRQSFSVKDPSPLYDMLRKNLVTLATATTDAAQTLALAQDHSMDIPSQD

[1] = tested on: Blood cancer cells RS4; 11; assay: CellTiter Glo test: growth inhibition of cells; assay type: cell-based; details: Homo sapiens, 11 cells, 72 h, cell viability
Description: Test of Candidate Compounds on Growth Inhibition of Cells Determined by CellTiter Glo
Blood cancer cells RS4; 11 were inoculated into the 96-well cell culture plate through Multidrop 3000 cells per well, with a volume of 100 μL. The final compound concentration ranged from 50 μM to 0.01 μM at 9 concentration gradients and the DMSO final concentration was 0.1%. The cells and compounds were co-incubated in a cell incubator at 37° C. for 72 h, a CellTiter-Glo Luminescent Cell Viability Assay reagent was added 100 μL/well, the cells and compound were uniformly mixed and incubated at room temperature for 10 min, and Envision reading was performed. A sample treated with 50 μM of a positive compound was taken as a positive control and a sample treated with 100 nL of DMSO was taken as a negative control.

Chain of MDM2 (Q00987 2-138): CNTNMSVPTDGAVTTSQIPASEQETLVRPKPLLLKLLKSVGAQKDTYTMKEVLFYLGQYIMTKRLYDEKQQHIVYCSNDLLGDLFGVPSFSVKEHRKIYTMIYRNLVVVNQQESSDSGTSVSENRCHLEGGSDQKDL

SMILES | pIC50 (MDM2) | pIC50 (MDMX) | pIC50 [1]
COc1c(Cl)ccc2c(/C=C3\NC(=O)N(C(C)c4ccc(F)c(F)c4)C3=O)c[nH]c12 (stereo not shown) [Compound 25, (Z)-5-((6-chloro-7-methoxyl-1H-indol-3-yl)methylene)-3-(1-(3,4-difluorophenyl)ethyl)imidazolidine-2,4-dione] | 7.00 to 8.00 | 7.00 to 8.00 | 
N#Cc1ccc(C(C(=O)NC(CO)CO)N2C(=O)N/C(=C\c3c[nH]c4cc(Cl)ccc34)C2=O)cc1 (stereo not shown) [Compound 31, (Z)-2-(4-((6-chloro-1H-indol-3-yl)methylene)-2,5-dioxoimidazolidin-1-yl)-2-(4-cyanophenyl)-N-(1,3-dihydroxypropan-2-yl)acetamide] | 7.00 to 8.00 | 7.00 to 8.00 | 5.00 to 6.00
N#Cc1ccc(C(CO)N2C(=O)N/C(=C\c3c[nH]c4c(F)c(Cl)ccc34)C2=O)cc1F (stereo not shown) [Compound 37, (Z)-4-(1-(4-((6-chloro-7-fluoro-1H-indol-3-yl)methylene)-2,5-dioxoimidazolidin-1-yl)-2-hydroxyethyl)-2-fluorobenzonitrile] | 7.00 to 8.00 | 7.00 to 8.00 | ≥ 6.00
O=C1N/C(=C\c2c[nH]c3c(F)c(Cl)ccc23)C(=O)N1Cc1cc(F)c(Cl)c(F)c1 [Compound 106, (Z)-3-(4-chloro-3,5-difluorobenzyl)-5-((6-chloro-7-fluoro-1H-indol-3-yl)methylene)imidazolidine-2,4-dione] | 7.00 to 8.00 | 7.00 to 8.00 | ≥ 6.00
O=C1N/C(=C\c2c[nH]c3cc(Cl)ccc23)C(=O)N1C(CO)c1ccc(Cl)cc1 (stereo not shown) [Compound 45, (Z)-5-((6-chloro-1H-indol-3-yl)methylene)-3-(1-(4-chlorophenyl)-2-hydroxyethyl)imidazolidine-2,4-dione] | 7.00 to 8.00 | 7.00 to 8.00 | ≥ 6.00
O=C1N/C(=C\c2c[nH]c3c(F)c(Cl)ccc23)C(=O)N1C(CCCO)c1ccc(Cl)cc1 (stereo not shown) [Compound 109, (Z)-5-((6-chloro-7-fluoro-1H-indol-3-yl)methylene)-3-(1-(4-chlorophenyl)-4-hydroxybutyl)imidazolidine-2,4-dione] |  |  | ≥ 6.00
O=C1N/C(=C\c2c[nH]c3c(F)c(Cl)ccc23)C(=O)N1C(CO)c1cc(F)c(Cl)cc1F (stereo not shown) [Compound 101, (Z)-3-(1-(4-chloro-2,5-difluorophenyl)-2-hydroxyethyl)-5-((6-chloro-7-fluoro-1H-indol-3-yl)methylene)imidazolidine-2,4-dione] | 7.00 to 8.00 | < 7.00 | 5.00 to 6.00
Cc1c(Cl)ccc2c(/C=C3\NC(=O)N(C(C(=O)NC(COP(=O)(O)O)COP(=O)(O)O)c4ccc(F)c(F)c4)C3=O)c[nH]c12 (stereo not shown) [Compound 74, (Z)-2-(2-(4-((6-chloro-7-methyl-1H-indol-3-yl)methylene)-2,5-dioxoimidazolidin-1-yl)-2-(3,4-difluorophenyl)acetamido)propane-1,3-diylbis(dihydrophosphate)] | < 7.00 | 7.00 to 8.00 | 
O=C1N/C(=C\c2c[nH]c3c(OCF)c(Cl)ccc23)C(=O)N1Cc1ccc(F)c(F)c1 [Compound 6, (Z)-5-((6-chloro-7-(fluoromethoxyl)-1H-indol-3-yl)methylene)-3-(3,4-difluorobenzyl)imidazolidine-2,4-dione] | 7.00 to 8.00 | 7.00 to 8.00 | 
O=C1N/C(=C\c2c[nH]c3c(Cl)c(Cl)ccc23)C(=O)N1Cc1ccc(F)c(F)c1 [Compound 7, (Z)-5-((6,7-dichloro-1H-indol-3-yl)methylene)-3-(3,4-difluorobenzyl)imidazolidine-2,4-dione] | 7.00 to 8.00 | 7.00 to 8.00 | 
O=C1N/C(=C\c2c[nH]c3cc(Cl)ccc23)C(=O)N1[C@@H](COP(=O)(O)O)c1ccc(F)c(F)c1 [Compound 95, (R,Z)-2-(4-((6-chloro-1H-indol-3-yl)methylene)-2,5-dioxoimidazolidin-1-yl)-2-(3,4-difluorophenyl)dihydroethyl phosphate] | 7.00 to 8.00 | 7.00 to 8.00 | 
O=C1N/C(=C\c2c[nH]c3c(F)c(Cl)ccc23)C(=O)N1C(CCO)c1ccc(Cl)cc1 (stereo not shown) [Compound 108, (Z)-5-((6-chloro-7-fluoro-1H-indol-3-yl)methylene)-3-(1-(4-chlorophenyl)-3-hydroxypropyl)imidazolidine-2,4-dione] |  |  | ≥ 6.00
Cc1c(Cl)ccc2c(/C=C3\NC(=O)N(C(COP(=O)(O)O)c4ccc(F)c(F)c4)C3=O)c[nH]c12 (stereo not shown) [Compound 43, (Z)-2-(4-((6-chloro-7-methyl-1H-indol-3-yl)methylene)-2,5-dioxoimidazolidin-1-yl)-2-(3,4-difluorophenyl)ethyl dihydrophosphate] | 7.00 to 8.00 | 7.00 to 8.00 | 
Cc1c(Cl)ccc2c(/C=C3\NC(=O)N(C(CO)c4ccc(F)c(F)c4)C3=O)c[nH]c12 (stereo not shown) [Compound 39, (Z)-5-((6-chloro-7-methyl-1H-indol-3-yl)methylene)-3-(1-(3,4-difluorophenyl)-2-hydroxyethyl)imidazolidine-2,4-dione] |  |  | 5.00 to 6.00
CCN(CC)CCNC(=O)C(c1ccc(Cl)cc1)N1C(=O)N/C(=C\c2c[nH]c3cc(Cl)ccc23)C1=O (stereo not shown) [Compound 23, (Z)-2-(4-((6-chloro-1H-indol-3-yl)methylene)-2,5-dioxoimidazolidin-1-yl)-2-(4-chlorophenyl)-N-(2-(diethylamino)ethyl)acetamide] | 7.00 to 8.00 | 7.00 to 8.00 | 
Cc1c(Cl)ccc2c(/C=C3\NC(=O)N(C(COP(=O)(O)O)c4ccc(C#N)cc4)C3=O)c[nH]c12 (stereo not shown) [Compound 92, (Z)-2-(4-((6-chloro-7-methyl-1H-indol-3-yl)methylene)-2,5-dioxoimidazolidin-1-yl)-2-(4-cyanophenyl)ethyl dihydrophosphate] | 7.00 to 8.00 | 7.00 to 8.00 | 

Continued, values first:

pIC50 (MDM2) | pIC50 (MDMX) | pIC50 [1] | SMILES
> 8.00 | > 8.00 |  | O=C1N/C(=C\c2c[nH]c3cc(Cl)ccc23)C(=O)N1[C@H](COP(=O)(O)O)c1ccc(F)c(F)c1 [Compound 94, (S,Z)-2-(4-((6-chloro-1H-indol-3-yl)methylene)-2,5-dioxoimidazolidin-1-yl)-2-(3,4-difluorophenyl)dihydroethyl phosphate]
7.00 to 8.00 | 7.00 to 8.00 | ≥ 6.00 | O=C1N/C(=C\c2c[nH]c3c(F)c(Cl)ccc23)C(=O)N1C(CO)c1ccc(Cl)cc1 (stereo not shown) [Compound 69, (Z)-5-((6-chloro-7-fluoro-1H-indol-3-yl)methylene)-3-(1-(4-chlorophenyl)-2-hydroxyethyl)imidazolidine-2,4-dione]
7.00 to 8.00 | 7.00 to 8.00 | ≥ 6.00 | O=C1N/C(=C\c2c[nH]c3c(F)c(Cl)ccc23)C(=O)N1C(CO)c1ccc(Cl)c(F)c1 (stereo not shown) [Compound 77, (Z)-3-(1-(4-chloro-3-fluorophenyl)-2-hydroxyethyl)-5-((6-chloro-7-fluoro-1H-indol-3-yl)methylene)imidazolidine-2,4-dione]
> 8.00 | < 7.00 | 5.00 to 6.00 | O=C1N/C(=C\c2c[nH]c3c(F)c(Cl)ccc23)C(=O)N1C(CO)c1c(F)cc(Cl)cc1F (stereo not shown) [Compound 103, (Z)-3-(1-(4-chloro-2,6-difluorophenyl)-2-hydroxyethyl)-5-((6-chloro-7-fluoro-1H-indol-3-yl)methylene)imidazolidine-2,4-dione]
> 8.00 | > 8.00 | ≥ 6.00 | Cc1c(Cl)ccc2c(/C=C3\NC(=O)N(C(C(=O)NC45CC(O)(C4)C5)c4ccc(F)c(F)c4)C3=O)c[nH]c12 (stereo not shown) [Compound 57, (Z)-2-(4-((6-chloro-7-methyl-1H-indol-3-yl)methylene)-2,5-dioxoimidazolidin-1-yl)-2-(3,4-difluorophenyl)-N-(3-hydroxylbicyclo[1.1.1]pentan-1-yl)acetamide]
> 8.00 | > 8.00 | ≥ 6.00 | N#Cc1ccc(CN2C(=O)N/C(=C\c3c[nH]c4c(F)c(Cl)ccc34)C2=O)cc1F [Compound 14, (Z)-4-((4-((6-chloro-7-fluoro-1H-indol-3-yl)methylene)-2,5-dioxoimidazolidin-1-yl)methyl)-2-fluorobenzonitrile]
> 8.00 | > 8.00 | 5.00 to 6.00 | Cc1c(Cl)ccc2c(/C=C3\NC(=O)N(C(C(=O)NC(CO)CO)c4ccc(C#N)cc4)C3=O)c[nH]c12 (stereo not shown) [Compound 32, (Z)-2-(4-((6-chloro-7-methyl-1H-indol-3-yl)methylene)-2,5-dioxoimidazolidin-1-yl)-2-(4-cyanophenyl)-N-(1,3-dihydroxypropan-2-yl)acetamide]
> 8.00 | 7.00 to 8.00 |  | O=C(NC(CO)CO)C(c1ccc(Cl)cc1)N1C(=O)N/C(=C\c2c[nH]c3cc(Cl)ccc23)C1=O (stereo not shown) [Compound 22, (Z)-2-(4-((6-chloro-1H-indol-3-yl)methylene)-2,5-dioxoimidazolidin-1-yl)-2-(4-chlorophenyl)-N-(1,3-dihydroxypropan-2-yl)acetamide]
> 8.00 | > 8.00 |  | Cc1c(Cl)ccc2c(/C=C3\NC(=O)N(C(C(=O)NCCOP(=O)(O)O)c4ccc(F)c(F)c4)C3=O)c[nH]c12 (stereo not shown) [Compound 44, (Z)-2-(2-(4-((6-chloro-7-methyl-1H-indol-3-yl)methylene)-2,5-dioxoimidazolidin-1-yl)-2-(3,4-difluorophenyl)acetamido)dihydroethyl phosphate]
